# Measurements as given in patent publication US20250215029A1 (Recludix Pharma, Inc., priority 2022, published 2025).
# Molecular target: T1, pY705-STAT3 in PBMC (Homo sapiens, UniProt P40763)
# T1 construct: Cryopreserved Peripheral Blood Mononuclear Cells (PBMC) are from AllCells; host or cells: cryopreserved PBMC
# Assay: MSD-pSTAT-PBMC Assay (pSTAT3, IL-6 stimulated)
# Assay type: cell-based
# Settings: PBMC, compound 3 hrs, then 10 ng/mL IL-6 for 10 min; Table 115; read-out: STAT3
# Procedure, shortened: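 Human PBMCs were pretreated with compound for 3 h, then stimulated with 10 ng/mL IL-6 for 10 min. Lysate pY705-STAT3 was measured by MSD sandwich immunoassay (anti-STAT3 capture) and corrected for unstimulated background. Signal was normalized to DMSO, and IC50 came from variable-slope regression.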
# T1 sequence (P40763 whole entry): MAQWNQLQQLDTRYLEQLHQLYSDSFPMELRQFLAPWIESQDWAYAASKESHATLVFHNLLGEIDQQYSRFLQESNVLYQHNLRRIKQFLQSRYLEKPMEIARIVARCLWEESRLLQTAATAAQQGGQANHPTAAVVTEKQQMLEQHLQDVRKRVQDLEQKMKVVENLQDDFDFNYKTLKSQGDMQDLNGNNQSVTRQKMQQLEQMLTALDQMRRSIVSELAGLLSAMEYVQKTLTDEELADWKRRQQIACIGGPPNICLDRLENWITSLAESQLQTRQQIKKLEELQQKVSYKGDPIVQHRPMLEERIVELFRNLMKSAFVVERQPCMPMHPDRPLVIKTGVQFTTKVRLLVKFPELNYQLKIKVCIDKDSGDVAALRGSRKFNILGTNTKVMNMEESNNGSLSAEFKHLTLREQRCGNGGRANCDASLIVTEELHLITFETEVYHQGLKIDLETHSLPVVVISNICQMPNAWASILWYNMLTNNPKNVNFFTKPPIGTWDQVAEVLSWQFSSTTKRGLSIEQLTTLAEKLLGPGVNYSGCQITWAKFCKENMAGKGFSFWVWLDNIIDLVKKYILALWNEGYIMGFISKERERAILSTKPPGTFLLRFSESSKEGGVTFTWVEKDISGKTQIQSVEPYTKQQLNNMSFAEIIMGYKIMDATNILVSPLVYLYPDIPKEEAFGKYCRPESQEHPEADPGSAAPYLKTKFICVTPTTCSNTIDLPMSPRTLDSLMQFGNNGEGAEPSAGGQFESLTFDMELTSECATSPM
row,SMILES,IC50 [nM]
1,"CCCOC(=O)[C@H](C)NP(=O)(Cc1ccc2sc(C(=O)N[C@H]3CCC[C@H]4CC[C@@H](C(=O)N5CC(c6cncnc6N6CCC6)C5)N4C3=O)cc2c1)Oc1ccccc1 (stereo partly drawn) [Compound 1019, propyl (((2-(((3S,6S,9aS)-3-(3-(4-(azetidin-1-yl)pyrimidin-5-yl)azetidine-1-carbonyl)-5-oxooctahydro-1H-pyrrolo[1,2-a]azepin-6-yl)carbamoyl)benzo [b]thiophen-5-yl)methyl)(phenoxy)phosphoryl)-L-alaninate]",< 100
2,"CC(C)CC(=O)SCCOP(=O)(OCOC(=O)OC(C)C)[C@H](F)c1ccc2sc(C(=O)N[C@H]3CCC[C@H]4CC[C@@H](C(=O)N5CC(c6cccnc6)C5)N4C3=O)cc2c1 (stereo partly drawn) [Compound 1096, S-(2-((((S)-fluoro(2-(((3S,6S,9aS)-5-oxo-3-(3-(pyridin-3-yl)azetidine-1-carbonyl)octahydro-1H-pyrrolo[1,2-a]azepin-6-yl)carbamoyl)benzo [b]thiophen-5-yl)methyl) (((isopropoxy-carbonyl)oxy)methoxy)phosphoryl)oxy)ethyl) 3-methylbutanethioate]",< 100
3,"CC(C)(C)C(=O)SCCOP(=O)(OCCSC(=O)C(C)(C)C)C(F)(F)c1ccc2sc(C(=O)N[C@H]3CCCC[C@H]4CC[C@@H](C(=O)NCc5cnc6[nH]cnc6c5)N4C3=O)cc2c1 [Compound 1005, S,S′-(((((2-(((3S,6S,10aS)-3-(((3H-imidazo[4,5-b]pyridin-6-yl)methyl)carbamoyl)-5-oxodecahydropyrrolo [1,2-a]azocin-6-yl)carbamoyl)benzo [b]thiophen-5-yl)difluoromethyl)phosphoryl)bis(oxy))bis(ethane-2,1-diyl)) bis(2,2-dimethyl-propanethioate)]",< 100
4,"CCCOC(=O)[C@H](C)N[P@](=O)(Oc1ccccc1)[C@@H](F)c1ccc2sc(C(=O)N[C@H]3CCC[C@H]4CC[C@@H](C(=O)N5CC(c6cnccc6N6CCOCC6)C5)N4C3=O)cc2c1 (single isomer, unassigned) [Compound 1047]",100 to 1000
5,"Cc1ccncc1C1CN(C(=O)[C@@H]2CC[C@@H]3CCCC[C@H](NC(=O)c4cc5cc(CP(=O)(N[C@@H](C)C(=O)OCC(C)C)Oc6ccccc6)ccc5s4)C(=O)N32)C1 (stereo partly drawn) [Compound 282, isobutyl (((2-(((3S,6S,10aS)-3-(3-(4-methylpyridin-3-yl)azetidine-1-carbonyl)-5-oxodecahydropyrrolo [1,2-a]azocin-6-yl)carbamoyl)benzo [b]thiophen-5-yl)methyl)(phenoxy)phosphoryl)-L-alaninate]",< 100
6,"CCOC(=O)[C@H](Cc1ccccc1)NP(=O)(Cc1ccc2sc(C(=O)N[C@H]3CCC[C@H]4CC[C@@H](C(=O)N5CC(c6cccnc6)C5)N4C3=O)cc2c1)Oc1ccccc1 (stereo partly drawn) [Compound 389, ethyl (((2-(((3S,6S,9aS)-5-oxo-3-(3-(pyridin-3-yl)azetidine-1-carbonyl)octahydro-1H-pyrrolo[1,2-a]azepin-6-yl)carbamoyl)benzo [b]thiophen-5-yl)methyl)(phenoxy)phosphoryl)-L-phenylalaninate]",100 to 1000
7,"CCCOC(=O)[C@H](C)NP(=O)(Cc1ccc2sc(C(=O)N[C@H]3CCC[C@H]4CC[C@@H](C(=O)N5CC(c6cnccc6N6CC(OC)C6)C5)N4C3=O)cc2c1)Oc1ccccc1 (stereo partly drawn) [Compound 300, propyl (((2-(((3S,6S,9aS)-3-(3-(4-(3-methoxyazetidin-1-yl)pyridin-3-yl)azetidine-1-carbonyl)-5-oxooctahydro-1H-pyrrolo[1,2-aJazepin-6-yl)carbamoyl)benzo [b]thiophen-5-yl)methyl)(phenoxy)phosphoryl)-L-alaninate]",< 100
8,"CCCOC(=O)[C@H](C)NP(=O)(Oc1ccccc1)[C@@H](F)c1ccc2sc(C(=O)N[C@H]3CC[C@@H](CC)C[C@H]4CC[C@@H](C(=O)N5CC(c6cnccc6N6CCC6)C5)N4C3=O)cc2c1 (stereo partly drawn) [Compound 493, propyl (((R)-(2-(((3S,6S,9R,10aR)-3-(3-(4-(azetidin-1-yl)pyridin-3-yl)azetidine-1-carbonyl)-9-ethyl-5-oxodecahydropyrrolo [1,2-a]azocin-6-yl)carbamoyl)benzo [b]thiophen-5-yl)fluoromethyl) (phenoxy)phosphoryl)-L-alaninate]",< 100
9,"CCCOC(=O)[C@H](C)N[P@](=O)(Oc1ccccc1)[C@@H](F)c1ccc2sc(C(=O)N[C@H]3C[C@@H](C)C[C@H]4CC[C@@H](C(=O)N5CC(c6cnccc6OC)C5)N4C3=O)cc2c1 (single isomer, unassigned) [Compound 1058]",< 100
10,"COc1ccncc1C1CN(C(=O)[C@@H]2CC[C@@H]3CCC[C@H](NC(=O)c4cc5cc([C@H](F)[P@@](=O)(N[C@@H](C)C(=O)OCc6ccccc6)Oc6ccccc6)ccc5s4)C(=O)N32)C1 (single isomer, unassigned) [Compound 1051]",100 to 1000
11,"CCCOC(=O)[C@H](C)N[P@](=O)(Oc1ccccc1)[C@@H](F)c1ccc2sc(C(=O)N[C@H]3C[C@@H](C)C[C@H]4CC[C@@H](C(=O)N5CC(c6cnccc6OC)C5)N4C3=O)cc2c1 (single isomer, unassigned) [Compound 1059]",< 100
12,"CCCOC(=O)C(C)CNP(=O)(Cc1ccc2sc(C(=O)N[C@H]3CCC[C@H]4CC[C@@H](C(=O)N5CC(c6cccnc6)C5)N4C3=O)cc2c1)Oc1ccccc1 (stereo partly drawn) [Compound 294, propyl 2-methyl-3-((((2-(((3S,6S,9aS)-5-oxo-3-(3-(pyridin-3-yl)azetidine-1-carbonyl)octahydro-1H-pyrrolo[1,2-a]azepin-6-yl)carbamoyl)benzo [b]thiophen-5-yl)methyl)(phenoxy)phosphoryl)amino) propanoate]",1000 to 3000
13,"CCCOC(=O)[C@H](C)NP(=O)(Cc1ccc2sc(C(=O)N[C@H]3CCC[C@H]4CC[C@@H](C(=O)N5CC(c6cccnc6)C5)N4C3=O)cc2c1)OCCOC (stereo partly drawn) [Compound 438, propyl ((2-methoxyethoxy)((2-(((3S,6S,9aS)-5-oxo-3-(3-(pyridin-3-yl)azetidine-1-carbonyl)octahydro-1H-pyrrolo[1,2-a]azepin-6-yl)carbamoyl)benzo [b]thiophen-5-yl)methyl)phosphoryl)-L-alaninate]",1000 to 3000
14,"CC(C)(C)C(=O)SCCOP(=O)(OCCSC(=O)C(C)(C)C)C(F)(F)c1ccc2sc(C(=O)N[C@H]3CCC[C@H]4CC[C@@H](C(=O)NCc5cnc6[nH]cnc6c5)N4C3=O)cc2c1 [Compound 1002, S,S′-(((((2-(((3S,6S,9aS)-3-(((3H-imidazo[4,5-b]pyridin-6-yl)methyl)carbamoyl)-5-oxooctahydro-1H-pyrrolo[1,2-a]azepin-6-yl)carbamoyl)benzo [b]thiophen-5-yl)difluoromethyl)phosphoryl)bis(oxy))bis(ethane-2,1-diyl)) bis(2,2-dimethyl-propanethioate)]",< 100
15,"CCCCOC(=O)[C@H](C)N(C)P(=O)(Oc1ccccc1)C(F)(F)c1ccc2sc(C(=O)N[C@H]3CCC[C@H]4CC[C@@H](C(=O)N5CC(c6cccnc6)C5)N4C3=O)cc2c1 (stereo partly drawn) [Compound 285, butyl N-((difluoro(2-(((3S,6S,9aS)-5-oxo-3-(3-(pyridin-3-yl)azetidine-1-carbonyl)octahydro-1H-pyrrolo[1,2-a]azepin-6-yl)carbamoyl)benzo [b]thiophen-5-yl)methyl)(phenoxy)phosphoryl)-N-methyl-L-alaninate]",> 3000
16,"CCCOC(=O)[C@H](C)NP(=O)(Cc1ccc2sc(C(=O)N[C@H]3CCC[C@H]4CC[C@@H](C(=O)N5CC(c6cccnc6)C5)N4C3=O)cc2c1)N1CCOCC1 (stereo partly drawn) [Compound 426, propyl (morpholino((2-(((3S,6S,9aS)-5-oxo-3-(3-(pyridin-3-yl)azetidine-1-carbonyl)octahydro-1H-pyrrolo[1,2-a]azepin-6-yl)carbamoyl)benzo [b]thiophen-5-yl)methyl)phosphoryl)-L-alaninate]",> 3000
17,"CCCOC(=O)[C@H](C)NP(=O)(Oc1ccccc1)C(F)c1ccc2sc(C(=O)N[C@H]3CCCC[C@H]4CC[C@@H](C(=O)N5CC(OCC(F)F)(c6cccnc6)C5)N4C3=O)cc2c1 (stereo partly drawn) [Compound 950, propyl (((2-(((3S,6S,10aS)-3-(3-(2,2-difluoroethoxy)-3-(pyridin-3-yl)azetidine-1-carbonyl)-5-oxodeca-hydropyrrolo [1,2-a]azocin-6-yl)carbamoyl)benzo [b]thiophen-5-yl)fluoromethyl) (phenoxy)phosphoryl)-L-alaninate]",< 100
18,"CCCOC(=O)[C@H](C)NP(=O)(Oc1ccccc1)C(F)c1ccc2sc(C(=O)N[C@H]3CCC[C@H]4CC[C@@H](C(=O)N5CC(c6cncnc6OC)C5)N4C3=O)cc2c1 (stereo partly drawn) [Compound 1042, propyl ((fluoro(2-(((3S,6S,9aS)-3-(3-(4-methoxypyrimidin-5-yl)azetidine-1-carbonyl)-5-oxooctahydro-1H-pyrrolo[1,2-a]azepin-6-yl)carbamoyl)benzo [b]thiophen-5-yl)methyl)(phenoxy)phosphoryl)-L-alaninate]",100 to 1000
19,"CCCOC(=O)[C@H](C)NP(=O)(Cc1ccc2sc(C(=O)N[C@H]3CCC[C@H]4CC[C@@H](C(=O)N[C@H]5CN(C(C)=O)C[C@H]5F)N4C3=O)cc2c1)Oc1ccccc1 (stereo partly drawn) [Compound 309, propyl (((2-(((3S,6S,9aS)-3-(((3S,4R)-1-acetyl-4-fluoropyrrolidin-3-yl)carbamoyl)-5-oxooctahydro-1H-pyrrolo[1,2-a]azepin-6-yl)carbamoyl)benzo [b]thiophen-5-yl)methyl)(phenoxy)phosphoryl)-L-alaninate]",> 3000

# Same assay, conditions: STAT3, PBMC, compound 3 hrs, then 10 ng/mL IL-6 for 10 min; Table 115
row,SMILES,IC50 [nM]
1,"CCCCOC(=O)[C@@H]1CC(F)(F)CN1P(=O)(Cc1ccc2sc(C(=O)N[C@H]3CCC[C@H]4CC[C@@H](C(=O)N5CC(c6cccnc6)C5)N4C3=O)cc2c1)Oc1ccccc1 (stereo partly drawn) [Compound 295, butyl (2S)-4,4-difluoro-1-(((2-(((3S,6S,9aS)-5-oxo-3-(3-(pyridin-3-yl)azetidine-1-carbonyl)octahydro-1H-pyrrolo[1,2-a]azepin-6-yl)carbamoyl)benzo [b]thiophen-5-yl)methyl)(phenoxy)phosphoryl) pyrrolidine-2-carboxylate]",1000 to 3000
